{
  "source": "paper PMC8868346",
  "about": "“Novel Series of Dual NRF2 Inducers and Selective MAO-B Inhibitors for the Treatment of Parkinson’s Disease” (Antioxidants, 2022)",
  "key": {"[1]": {"target": "MAO-B", "settings": "cited from earlier work"}, "[2]": {"tested_on": "nitrite production in mixed primary glial cultures", "settings": "read-out: EC50 Nitrite Reduction; positive control; cited from earlier work"}, "[3]": {"experiment": "Oxygen radical absorbance capacity (ORAC) assay", "settings": "Trolox equivalents, AAPH, fluorescein", "procedure": "The ORAC test was performed to evaluate the oxygen free radical scavenger capacity of the compounds. […] Compounds at desired concentrations (0.03, 0.1, 0.3, 1, 3, and 10 µM) were diluted in phosphate-buffered saline (PBS; 10 mM, pH 7.4) at 37 °C and placed in a 96 black flat bottom well plate. […] A fluorescence measurement was done first to determine the basal signal. Then, 25 µL of 2, 2′-azobis-amidinopropane dihydrochloride (AAPH) (12 mM final concentration) was quickly added. All samples were measured in duplicates in three different experiments. […] Results were expressed in terms of Trolox equivalents (T.eq.), obtained by plotting net AUC versus compound concentration, then performing linear regression and normalizing slopes of the compounds considering Trolox as reference."}, "[4]": {"tested_on": "SH-SY5Y cells", "experiment": "Neuroprotection in SH-SY5Y against rotenone/oligomycin A (MTT)", "format": "cell-based, human", "settings": "compound 0.1 µM, 24 h pre- and 24 h co-incubation", "procedure": "(§1) Cells were seeded at a density of 60,000 cells/well in 96-well transparent plates for 24 h. Then cells were pre-incubated with the corresponding compound at 0.1 μM. After 24 h, the medium was removed and replaced with 1% (v/v) FBS media containing the corresponding compound at 0.1 µM and the selected toxic stimuli, namely a mixture of rotenone and oligomycin A (R/O; 30/10 μM, respectively; Sigma–Aldrich, Spain) or 6-hydroxydopamine (100 µM; Sigma–Aldrich, Spain). […]."}, "[5]": {"tested_on": "SH-SY5Y cells", "experiment": "Neuroprotection in SH-SY5Y against 6-hydroxydopamine (MTT)", "format": "cell-based, human", "settings": "6-OHDA 100 µM; compound 0.1 µM, 24 h pre- and 24 h co-incubation", "procedure": "as §1"}, "[6]": {"tested_on": "AREc32", "procedure": "AREc32 cells, shared by CR Wolf, were grown in Dulbecco’s modified Eagle medium (DMEM) with GlutaMAX (Gibco, Invitrogen, Madrid, Spain), supplemented with 10% (v/v) filtrated fetal bovine serum (FBS; Gibco, Invitrogen, Madrid, Spain), 1% of antibiotics penicillin-streptomycin, and geneticin (0.8 mg/mL G418; Gibco, Invitrogen, Madrid, Spain). […] They were recovered by centrifugation at 800 rpm for 10 min. Cells were used from the third to twelfth passage.\n(§2) Basal absorbance was set to 100% and results were normalized to basal conditions.\n(§3) Cytotoxicity. LD50 values in several cell cultures employed\n(§4) Table S2. Cytotoxicity elicited by 10-18 compounds in SH-SY5Y, AREc32 and mixed pr imary glial cultures. Viability was measured as MTT reduction in presence of increasing concentrations of der ivatives. LD50 values were calcula ted from dose-response curves. Data are expr essed as mean ± SEM of at least 3 independent experiments.\n(§5) 1.3. PAMPA control compounds (BBB permeability)\n(§6) Table S3. Pr ediction of the BBB passive permeability of control compounds"}, "[7]": {"target": "T1, MAO-B (Homo sapiens, UniProt P27338)", "T1 construct": "purchased Sigma–Aldrich", "T1 sequence (P27338 1-520)": "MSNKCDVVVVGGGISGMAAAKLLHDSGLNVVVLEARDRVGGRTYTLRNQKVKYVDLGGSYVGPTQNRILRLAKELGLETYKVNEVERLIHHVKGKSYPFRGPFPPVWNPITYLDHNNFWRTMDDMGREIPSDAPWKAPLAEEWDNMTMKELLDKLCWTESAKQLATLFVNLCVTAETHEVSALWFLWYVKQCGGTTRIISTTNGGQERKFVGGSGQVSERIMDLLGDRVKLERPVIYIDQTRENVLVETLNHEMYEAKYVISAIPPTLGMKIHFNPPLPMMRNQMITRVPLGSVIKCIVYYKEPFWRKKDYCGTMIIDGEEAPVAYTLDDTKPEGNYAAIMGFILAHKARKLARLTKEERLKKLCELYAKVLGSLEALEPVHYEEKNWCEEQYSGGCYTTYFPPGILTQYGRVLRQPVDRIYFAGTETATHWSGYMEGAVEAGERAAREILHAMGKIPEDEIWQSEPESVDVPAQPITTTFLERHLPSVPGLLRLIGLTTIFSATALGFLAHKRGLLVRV", "experiment": "MAO-B reversibility assay (pre-incubation times)", "format": "biochemical", "settings": "0, 15, 30 min pre-incubation at […] IC50"}, "[8]": {"tested_on": "MAO-B", "settings": "read-out: IC50 for MAO-B; cited from earlier work"}, "[9]": {"tested_on": "MAO-A", "settings": "read-out: IC50 for MAO-A; cited from earlier work"}, "[10]": {"experiment": "Blood–brain barrier permeation assay (PAMPA)", "settings": "BBB permeability class from Pe"}, "[11]": {"tested_on": "blood-brain barrier (passive diffusion)", "experiment": "Blood–brain barrier permeation assay (PAMPA)", "settings": "PAMPA, pH 7.4"}, "[12]": {"tested_on": "NRF2", "experiment": "NRF2 induction, luciferase activity in AREc32 reporter cells", "format": "cell-based, human", "settings": "Homo sapiens; AREc32 cells, 24 h; concentration required to double luciferase activity compared to basal; read-out: CD (µM) NRF2 Induction", "procedure": "Cells were used from the third to twelfth passage.\nAREc32 cells were stably transfected with the plasmid pGL-8xARE that implements 8 copies of the antioxidant response element (ARE) sequences followed by luciferase reporter gen. Therefore, NRF2 induction can be related to the activation of ARE sequences by measuring luciferase activity in terms of luminescence production. For NRF2 induction experiments, cells were plated in 96 white flat bottom well plates (20,000 cells/well). After 24 h, cells were incubated with selected compounds at the desired concentrations in duplicates for 24 h. The Luciferase Assay System (Promega E1500) was used according to provider protocol and luminescence was quantified in an Orion II microplate luminometer (Berthold, Germany). Fold induction of luciferase activity was normalized to basal conditions. Data were expressed as CD values, which means the concentration needed to duplicate the luciferase activity compared to basal conditions. CD values were calculated from dose–response curves fitted by non-linear regression for each compound after logarithmic transformation of the data using GraphPad Prism 8.0 software."}, "[13]": {"tested_on": "IL-1β", "experiment": "IL-1β levels by ELISA in LPS stimulated primary mixed glial cultures", "format": "cell-based, rat", "settings": "compound 10 μM; LPS 1 µg/mL 18 h", "procedure": "Cells were cultured for 7–10 days before treatment.\nPrimary glial cells were pre-treated with compounds at the desired concentration for 24 h. Then, treatments were removed and glial cells were incubated with lipopolysaccharide (LPS, 1 μg/mL; Sigma–Aldrich, Spain) in the presence of each compound at the desired concentration for 18 h. Nitrite production was then assessed by modified Griess assay. Briefly, 150 µL of each sample was mixed with 75 µL of 4,4′-diamino-diphenylsulfone (Dapsone) and 75 µL of N-(1-naphthyl)ethylenediamine (Neda). The mixture was incubated at room temperature for 5 min. […] Data were normalized to basal conditions, setting this value as 100% of nitrite production. EC50 values were calculated from dose–response curves obtained from representing percentage of nitrites reduction vs. compound concentration.\nSupernatants obtained from mixed primary glial cell cultures were used to determine IL-1β levels by quantitative ELISA kits (Preprotech, R&D Systems-bioNova, Madrid, Spain) following the manufacturer’s instructions. Commercial solution of IL-1β was used to generate a standard curve for sample quantification. Absorbance was measured in a microplate reader SPECTROstar Nano (BMG Labtech) at 405 with 650 nm correction."}, "[14]": {"tested_on": "SH-SY5Y", "settings": "human", "procedure": "They were recovered by centrifugation at 800 rpm for 10 min. Cells from the third to twelfth passage were seeded at a density of 80,000 cells/well in 96-well plates for the neuroprotection studies.\nas §2, §3, §4, §5, §6"}, "[15]": {"tested_on": "Mixed primary glial cultures", "experiment": "Cytotoxicity in mixed primary glial cultures (MTT)", "settings": "Sprague-Dawley, rat", "procedure": "Mixed primary glial cultures were obtained from cerebral cortex of 2–5-day-old Sprague–Dawley rats. Blood vessels and meninges were first removed in Hank’s balanced salt solution (HBSS) and then forebrains were dissociated in DMEM/F12 medium. After mechanical dissociation, filtering, and centrifugation at 800 rpm for 10 min, cells were plated at a density of 30,000 cells/well in DMEM/F12 medium with 20% (v/v) FBS and 1% penicillin/streptomycin (10,000 units). […] After 5 days, medium was substituted by DMEM/F12 medium with 10% (v/v) FBS. Cells were cultured for 7–10 days before treatment.\nas §2, §3, §4, §5, §6"}, "[16]": {"tested_on": "rat striatal slices", "experiment": "Rat striatal slices exposed to rotenone: ROS production", "format": "cell-based", "settings": "compound 10 µM, rotenone 10 µM, 4 h", "procedure": "Three- to four-month-old Sprague–Dawley rats were decapitated, the brain was removed, and the two brain hemispheres were separated. Each hemisphere was then cut into 300-µm coronal slices using a McIlwain Tissue Chopper (Cavey Laboratory Engineering, Surrey, UK) and separated in a previously oxygenated (95% O2 and 5% CO2) ice-cold Krebs’s dissection buffer (120 mM of NaCl; 2 mM of KCl; 26 mM of NaHCO3; 1.18 mM of KH2PO4; 10 mM of MgSO4; 0.5 mM of CaCl2; 11 mM of glucose; and 200 mM sucrose at pH 7.4) using a Leica SE6 microscope (Leica, Madrid, Spain). Striatum-containing slices were selected and immediately incubated for stabilization in dissection buffer without sucrose, bubbled with 95% O2 and 5% CO2 for 45 min at 34 °C, allowing slices to recover from slicing injury. […] Finally, cell death and the ROS production were measured.\nROS quantification was performed using the fluorescent probe 2,7′-dichlorodihydrofluorescein diacetate (H2DCFDA, λEx/Em = 495/529 nm; Thermo Fisher, Madrid, Spain). Cell death quantification was performed using the fluorescent probe propidium iodide (PI, λEx/Em = 535/617 nm; Thermo Fisher, Madrid, Spain). […] Fluorescence from striatum slices was then recorded for H2DCFDA (λEx/Em = 495/529 nm), PI (λEx/Em = 535/617 nm), and Hoechst (λEx/Em = 350/461 nm), in an inverted Nikon Eclipse T2000-U microscope (Nikon, Tokyo, Japan). […]"}},
  "note": "Read-outs that look alike come from different tables or passages of the source.",
  "data": [
    {"smiles": "C(=CCc1ccccc1)Cc1ccccc1", "note": "[1,4-diphenyl-2-butene]", "values": [
      {"measurement": "Ki", "setting": "[1]", "result": 35, "unit": "µM"}
    ]},
    {"smiles": "C[S+]([O-])CCCCN=C=S", "note": "(centres unmarked) [Sulforaphane]", "values": [
      {"measurement": "EC50", "setting": "[2]", "result": "1400 ± 300", "unit": "nM"}
    ]},
    {"smiles": "C#CCN[C@@H]1CCc2ccccc21", "note": "[Rasagiline, reference compound]", "values": [
      {"measurement": "ORAC (T. eq.)", "setting": "[3]", "result": "0.04 ± 0.02", "unit": "T. eq."},
      {"measurement": "ORAC (T. eq.)", "setting": "[3]; listed as rasagiline", "result": "no effect"},
      {"measurement": "R/O (30/10 µM) Protection (%)", "setting": "[4]", "result": 28.9, "unit": "%"},
      {"measurement": "6-OHDA Protection (%)", "setting": "[5]", "result": 77.0, "unit": "%"},
      {"measurement": "LD50 (µM) AREc32", "setting": "[6]; MTT reduction", "result": "> 30", "unit": "µM"},
      {"measurement": "MAO-B inhibition reversibility", "setting": "[7]", "result": "Irreversible"},
      {"measurement": "IC50", "setting": "[8]", "result": "[…]"},
      {"measurement": "IC50", "setting": "[9]", "result": "[…]"},
      {"measurement": "PAMPA Prediction", "setting": "[10]", "result": "CNS + (CNS + (high BBB permeability): Pe (10^−6 cm s^−1) > 4.0)"},
      {"measurement": "Papp at 4 h, 100 µM", "setting": "[11]", "result": "23.5 ± 4.2", "unit": "×10⁻⁶ cm/s"}
    ]},
    {"smiles": "COc1ccc2[nH]cc(CCNC(C)=O)c2c1", "note": "[Melatonin, reference compound]", "values": [
      {"measurement": "EC50", "setting": "[12]", "result": "> 30", "unit": "µM"},
      {"measurement": "IL-1β Levels % Reduction (10 μM)", "setting": "[13]", "result": "31.6 ± 7.00", "unit": "%"},
      {"measurement": "R/O (30/10 µM) Protection (%)", "setting": "[4]", "result": 22.3, "unit": "%"},
      {"measurement": "6-OHDA Protection (%)", "setting": "[5]", "result": 88.8, "unit": "%"},
      {"measurement": "LD50 (µM) SH-SY5Y", "setting": "[14]", "result": "> 100", "unit": "µM"},
      {"measurement": "LD50 (µM) AREc32", "setting": "[6]; human", "result": "> 30", "unit": "µM"},
      {"measurement": "LD50 (µM) Mixed primary glial cultures", "setting": "[15]", "result": "> 30", "unit": "µM"},
      {"measurement": "ROS levels (H2DCFDA), rotenone model", "setting": "[16]", "result": "reduced"}
    ]}
  ]
}
